From patent US20100222349A1, “QUINOLINE DERIVATIVES USED TO TREAT INFLAMMATORY AND ALLERGIC DISEASES” (Glaxo Group Limited, priority 2007, published 2010)

Assays:
[1] = biological target: T1, human H1 receptor (Homo sapiens, UniProt P35367); assay: Histamine H1 functional antagonist assay: determination of functional pKi values (FLIPR); assay type: cell-based; details: CHO cells expressing human H1 receptor, histamine at EC80, read-out: average pKi (pKb) at H1 (converted)
T1 construct: expressed in transfected cells
Experimental: The human H1 receptor is cloned using known procedures described in the literature [Biochem. Biophys. Res. Commun., 201(2):894 (1994)]. Chinese hamster ovary (CHO) cells stably expressing the human H1 receptor are generated according to known procedures described in the literature [Br. J. Pharmacol., 117(6):1071 (1996)]. The histamine H1 cell line is seeded into non-coated black-walled clear bottom 384-well tissue culture plates in alpha minimum essential medium (Gibco/Invitrogen, cat no. 22561-021), supplemented with 10′)/0 dialysed foetal calf serum (Gibco/Invitrogen cat no. 12480-021) and 2 mM L-glutamine (Gibco/Invitrogen cat no 25030-024) and is maintained overnight at 5% CO2, 37° C. Excess medium is removed from each well to leave 10 μl. 30 μl loading dye (250 μM Brilliant Black, 2 μM Fluo-4 diluted in Tyrodes buffer+probenecid (145 mM NaCl, 2.5 mM KCl, 10 mM HEPES, 10 mM D-glucose, 1.2 mM MgCl2, 1.5 mM CaCl2, 2.5 mM probenecid, pH adjusted to 7.40 with NaOH 1.0 M)) is added to each well and the plates are incubated for 60 min at 5% CO2, 37° C. 10 μl of test compound, diluted to the required concentration in Tyrodes buffer+probenecid (or 10 μl Tyrodes buffer+probenecid as a control) is added to each well and the plate is incubated for 30 min at 37° C., 5% CO2. The plates are then placed into a FLIPR™(Molecular Devices, UK) to monitor cell fluorescence (λex=488 nm, λEM=540 nm) in the manner described in Sullivan et al., (In: Lambert DG (ed.), Calcium Signaling Protocols, New Jersey: Humana Press, 1999, 125-136) before and after the addition of 10 μl histamine at a concentration that results in the final assay concentration of histamine being EC80. Functional antagonism is indicated by a suppression of histamine induced increase in fluorescence, as measured by the FLIPR™ system (Molecular Devices). By means of concentration effect curves, functional affinities are determined using standard pharmacological mathematical analysis.

[2] = biological target: T2, histamine H3 receptor (Homo sapiens, UniProt Q9Y5N1); assay: Histamine H3 functional antagonist assay (GTPγS, membranes); assay type: biochemical; details: CHO K1 membranes, [35S]-GTPγS, histamine at EC80; read-out: average pKi (pKb) at H3 (converted)
T2 construct: expressed in transfected cells; host or cells: CHO K1 cells with pSwitch/pGeneH3 (GeneSwitch, mifepristone-induced), clone 3H3; membrane preparation
Experimental: The histamine H3 cDNA is isolated from its holding vector, pcDNA3.1 TOPO (InVitrogen), by restriction digestion of plasmid DNA with the enzymes BamH1 and Not-1 and is ligated into the inducible expression vector pGene (InVitrogen) digested with the same enzymes. The GeneSwitchTM system (a system where in transgene expression is switched off in the absence of an inducer and switched on in the presence of an inducer) is performed as described in U.S. Pat. Nos. 5,364,791; 5,874,534; and 5,935,934. Ligated DNA is transformed into competent DH5α E. coli host bacterial cells and is plated onto Luria Broth (LB) agar containing ZeocinTM (an antibiotic which allows the selection of cells expressing the sh ble gene which is present on pGene and pSwitch) at 50 μgml^-1. Colonies containing the re-ligated plasmid are identified by restriction analysis. DNA for transfection into mammalian cells is prepared from 250 ml cultures of the host bacterium containing the […]3 plasmid and is isolated using a DNA preparation kit (Qiagen Midi-Prep) as per manufacturers guidelines (Qiagen). CHO K1 cells previously transfected with the pSwitch regulatory plasmid (InVitrogen) are seeded at 2×10^6 cells per T75 flask in Complete Medium, containing Hams F12 (GIBCOBRL, Life Technologies) medium supplemented with 10% v/v dialysed foetal bovine serum, L-glutamine, and hygromycin (100 μgml^-1), 24 h prior to use. Plasmid DNA is transfected into the cells using Lipofectamine plus according to the manufacturer's guidelines (InVitrogen). 48 h post transfection, cells are placed into complete medium supplemented with 500 μgml^-1 ZeocinTM. 10-14 days post selection, 10 nM Mifepristone (InVitrogen) is added to the culture medium to induce the expression of the receptor. 18 h post induction, cells are detached from the flask using ethylenediamine tetra-acetic acid (EDTA; 1:5000; InVitrogen), following several washes with PBS, pH 7.4 and are resuspended in Sorting Medium containing Minimum Essential Medium (MEM), without phenol red, and are supplemented with Earles salts and 3% Foetal Clone II (Hyclone). Approximately 1×10^7 cells are examined for receptor expression by staining with a rabbit polyclonal antibody, 4a, raised against the N-terminal domain of the histamine H3 receptor, are incubated on ice for 60 min, followed by two washes in sorting medium. Receptor bound antibody is detected by incubation of the cells for 60 min on ice with a goat anti rabbit antibody, conjugated with Alexa 488 fluorescence marker (Molecular Probes). Following two further washes with Sorting Medium, cells are filtered through a 50 μm FilconTM (BD Biosciences) and then are analysed on a FACS Vantage SE Flow Cytometer fitted with an Automatic Cell Deposition Unit. Control cells are non-induced cells treated in an analogous manner. Positively stained cells are sorted as single cells into 96-well plates, containing Complete Medium containing 500 μgml^-1 ZeocinTM and are allowed to expand before reanalysis for receptor expression via antibody and ligand binding studies. One clone, 3H3, is selected for membrane preparation. All steps of the protocol are carried out at 4° C. and with pre-cooled reagents. The cell pellet is resuspended in 10 volumes of homogenisation buffer (50 mM N-2-hydroxyethylpiperazine-N'-2-ethanesulfonic acid (HEPES), 1 mM ethylenediamine tetra-acetic acid (EDTA), pH 7.4 with KOH, supplemented with 10^-6 M leupeptin (acetyl-leucyl-leucyl-arginal; Sigma L2884), 25 μgml^-1 bacitracin (Sigma B0125), 1 mM phenylmethylsulfonyl fluoride (PMSF) and 2×10^-6 M pepstain A (Sigma)). The cells are then homogenised by 2×15 sec bursts in a 1 L glass Waring blender, followed by centrifugation at 500 g for 20 min. The supernatant is then spun at 48,000 g for 30 min. The pellet is resuspended in homogenisation buffer (4× the volume of the original cell pellet) by vortexing for 5 sec, followed by homogenisation in a Dounce homogeniser (10-15 strokes). […]

T1 sequence (P35367 whole entry): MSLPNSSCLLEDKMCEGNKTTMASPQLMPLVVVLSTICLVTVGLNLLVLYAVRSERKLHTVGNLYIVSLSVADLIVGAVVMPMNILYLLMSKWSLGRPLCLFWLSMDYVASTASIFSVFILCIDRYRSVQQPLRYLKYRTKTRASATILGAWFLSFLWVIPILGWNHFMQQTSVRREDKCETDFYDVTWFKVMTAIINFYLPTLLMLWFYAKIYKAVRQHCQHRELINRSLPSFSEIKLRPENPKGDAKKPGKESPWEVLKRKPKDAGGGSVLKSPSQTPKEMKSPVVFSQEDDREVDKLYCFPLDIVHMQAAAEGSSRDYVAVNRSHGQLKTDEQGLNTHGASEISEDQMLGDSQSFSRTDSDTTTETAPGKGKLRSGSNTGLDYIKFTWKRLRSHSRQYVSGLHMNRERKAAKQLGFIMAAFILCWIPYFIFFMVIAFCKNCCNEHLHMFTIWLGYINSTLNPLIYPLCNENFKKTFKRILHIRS
T2 sequence (Q9Y5N1 whole entry, species assumed): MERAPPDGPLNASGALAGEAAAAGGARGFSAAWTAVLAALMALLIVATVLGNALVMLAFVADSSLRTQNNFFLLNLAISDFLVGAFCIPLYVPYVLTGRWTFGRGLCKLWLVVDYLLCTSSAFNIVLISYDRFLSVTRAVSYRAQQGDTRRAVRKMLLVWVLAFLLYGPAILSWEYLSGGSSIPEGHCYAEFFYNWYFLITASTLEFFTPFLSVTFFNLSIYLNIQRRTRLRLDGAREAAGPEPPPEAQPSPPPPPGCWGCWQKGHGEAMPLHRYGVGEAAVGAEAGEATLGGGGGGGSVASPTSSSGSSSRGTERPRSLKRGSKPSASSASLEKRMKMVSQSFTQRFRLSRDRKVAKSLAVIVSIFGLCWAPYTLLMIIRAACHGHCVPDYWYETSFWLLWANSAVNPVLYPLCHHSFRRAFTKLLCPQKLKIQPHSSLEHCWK

SMILES | Ki [1] [nM] | Ki [2] [nM]
CCCCc1cc(OC2CCN(CC(=O)NC(C)(C)C)CC2)c2ncccc2c1 [Example 12, 2-{4-[(6-butyl-8-quinolinyl)oxy]-1-piperidinyl}-N-(1,1-dimethylethyl) acetamide] | < 100 | > 3160
CCCCc1cc(OC2CCN(CCCC(=O)NCCC)CC2)c2ncccc2c1 [Example 22, 4-{4-[(6-butyl-8-quinolinyl)oxy]-1-piperidinyl}-N-propylbutanamide] | < 10 | > 3160
CCCCc1cc(OC2CCN(C[C@H]3CC[C@H](C(=O)NCCCOC)CC3)CC2)c2ncccc2c1 [Example 47, trans-4-({4-[(6-butyl-8-quinolinyl)oxy]-1-piperidinyl}methyl)-N-[3-(methyloxy)propyl]cyclohexane carboxamide] | < 10 | > 316
CCCCc1cc(OC2CCN(CCCCC(=O)NCCOC)CC2)c2ncccc2c1 [Example 29, 5-{4-[(6-butyl-8-quinolinyl)oxy]-1-piperidinyl}-N-[2-(methyloxy)ethyl] pentanamide] | < 100 | > 3160
CCCCCc1cc(OC2CCN(CCCC(=O)NC(C)(C)C)CC2)c2ncccc2c1 [Example 88, N-(1,1-dimethylethyl)-4-{4-[(6-pentyl-8-quinolinyl)oxy]-1-piperidinyl}butanamide] | < 10 | > 316
CCCCc1cc(OC2CCN(CCCCCNC(=O)C(C)(C)C)CC2)c2ncccc2c1 [Example 76, N-(5-{4-[(6-butyl-8-quinolinyl)oxy]-1-piperidinyl}pentyl)-2,2-dimethyl propanamide] | < 10 | > 316
CCCCc1cc(OC2CCN(CCNC(=O)C3CCCCC3)CC2)c2ncccc2c1 [Example 75, N-(2-{4-[(6-butyl-8-quinolinyl)oxy]-1-piperidinyl}ethyl) cyclohexane carboxamide] | < 10 | > 316
CCCCc1cc(OC2CCN(CCCC(=O)NCC)CC2)c2ncccc2c1 [Example 20, 4-{4-[(6-butyl-8-quinolinyl)oxy]-1-piperidinyl}-N-ethylbutanamide] | < 10 | > 3160
CCCCc1cc(OC2CCN(CC3CCCNC3=O)CC2)c2ncccc2c1 (centres unmarked) [Example 5, 3-({4-[(6-butyl-8-quinolinyl)oxy]-1-piperidinyl}methyl)-2-piperidinone] | < 10 | > 316
CCCCCCc1cc(OC2CCN(C[C@H]3CC[C@H](C(=O)NC(C)C)CC3)CC2)c2ncccc2c1 [Example 56, trans-4-({4-[(6-hexyl-8-quinolinyl)oxy]-1-piperidinyl}methyl)-N-(1-methylethyl) cyclohexane carboxamide] | < 10 | > 316
CCCCc1cc(O[C@@H]2CCN(CCC(=O)N3CCCCC3)C2)c2ncccc2c1 [Example 33, 6-butyl-8-({(3R)-1-[3-oxo-3-(1-piperidinyl)propyl]-3-pyrrolidinyl}oxy)quinoline] | < 10 | > 316
CCCCc1cc(OC2CCN(CCC(=O)N(CC)CC)CC2)c2ncccc2c1 [Example 7, 3-{4-[(6-Butyl-8-quinolinyl)oxy]-1-piperidinyl}-N,N-diethylpropanamide] | < 10 | > 316
CCCCc1cc(OC2CCN(CCCc3nc(CCC)no3)CC2)c2ncccc2c1 [Example 87, 6-Butyl-8-({1-[3-(3-propyl-1,2,4-oxadiazol-5-yl)propyl]-4-piperidinyl}oxy)quinoline] | < 10 | > 316

The next lines start with the values.

Ki [1] [nM] | Ki [2] [nM] | SMILES
< 100 | > 316 | CCCCCCc1cc(OC2CCN(C[C@H]3CC[C@H](C(=O)Nc4ccc(C)cc4)CC3)CC2)c2ncccc2c1 [Example 48, trans-4-({4-[(6-hexyl-8-quinolinyl)oxy]-1-piperidinyl}methyl)-N-(4-methylphenyl) cyclohexane carboxamide]
< 100 | > 3160 | CCCCc1cc(OC2CCN(CCC(=O)NCC)CC2)c2ncccc2c1 [Example 15, 3-{4-[(6-butyl-8-quinolinyl)oxy]-1-piperidinyl}-N-ethylpropanamide]
< 10 | > 316 | CCCCCc1cc(OC2CCN(CCCNC(=O)CC)CC2)c2ncccc2c1 [Example 90, N-(3-{4-[(6-Pentyl-8-quinolinyl)oxy]-1-piperidinyl}propyl)propanamide]
< 10 | > 316 | CCCCc1cc(O[C@@H]2CCN(CCC(=O)N(CC)CC)C2)c2ncccc2c1 [Example 35, 3-{(3R)-3-[(6-butyl-8-quinolinyl)oxy]-1-pyrrolidinyl}-N,N-diethylpropanamide]
< 10 | > 316 | CCCCc1cc(OC2CCN(CCC(=O)N3CCCCC3)CC2)c2ncccc2c1 [Example 18, 6-butyl-8-({1-[3-oxo-3-(1-piperidinyl)propyl]-4-piperidinyl}oxy) quinoline]
< 100 | > 3160 | CCCCc1cc(OC2CCN(CC(=O)N3CCCCC3)CC2)c2ncccc2c1 [Example 13, 6-butyl-8-({1-[2-oxo-2-(1-piperidinyl)ethyl]-4-piperidinyl}oxy) quinoline]
< 100 | > 316 | CCCCCCc1cc(OC2CCN(C[C@H]3CC[C@H](C(=O)N4CCCC4)CC3)CC2)c2ncccc2c1 [Example 54, 6-hexyl-8-[(1-{[trans-4-(1-pyrrolidinylcarbonyl)cyclohexyl]methyl}-4-piperidinyl)oxy]quinoline]
< 100 | > 316 | CCCCCCc1cc(OC2CCN(C[C@H]3CC[C@H](C(=O)N(CC)CC)CC3)CC2)c2ncccc2c1 [Example 53, trans-N,N-diethyl-4-({4-[(6-hexyl-8-quinolinyl)oxy]-1-piperidinyl}methyl) cyclohexane carboxamide]
< 100 | > 316 | CCCCc1cc(OC2CCN(C[C@H]3CC[C@H](C(=O)Nc4ccc(C)cc4)CC3)CC2)c2ncccc2c1 [Example 59, trans-4-({4-[(6-butyl-8-quinolinyl)oxy]-1-piperidinyl}methyl)-N-(4-methylphenyl) cyclohexane carboxamide]
